According to article PMC11078216, “Discovery of potent and selective activity-based probes (ABPs) for the deubiquitinating enzyme USP30” (RSC Chemical Biology, 2024):

Columns and labels:
[1] = tested on: USP30; conditions: following 30 minutes incubation; read-out: reported IC50 against USP30; cited from earlier work
[2] = molecular target: T1, USP30 (Homo sapiens, UniProt Q70CQ3); assay: Direct target engagement in HEK293T cells: CuAAC ligation and in-gel fluorescence; assay type: cell-based; conditions: for probe concentration for detection of USP30 activity in intact cells: following 1 hour incubation
T1 construct: We next determined cellular engagement of endogenous USP30 with IMP-2587 or IMP-2586; endogenous in cells; host or cells: HEK293T
T1 sequence (Q70CQ3 1-517): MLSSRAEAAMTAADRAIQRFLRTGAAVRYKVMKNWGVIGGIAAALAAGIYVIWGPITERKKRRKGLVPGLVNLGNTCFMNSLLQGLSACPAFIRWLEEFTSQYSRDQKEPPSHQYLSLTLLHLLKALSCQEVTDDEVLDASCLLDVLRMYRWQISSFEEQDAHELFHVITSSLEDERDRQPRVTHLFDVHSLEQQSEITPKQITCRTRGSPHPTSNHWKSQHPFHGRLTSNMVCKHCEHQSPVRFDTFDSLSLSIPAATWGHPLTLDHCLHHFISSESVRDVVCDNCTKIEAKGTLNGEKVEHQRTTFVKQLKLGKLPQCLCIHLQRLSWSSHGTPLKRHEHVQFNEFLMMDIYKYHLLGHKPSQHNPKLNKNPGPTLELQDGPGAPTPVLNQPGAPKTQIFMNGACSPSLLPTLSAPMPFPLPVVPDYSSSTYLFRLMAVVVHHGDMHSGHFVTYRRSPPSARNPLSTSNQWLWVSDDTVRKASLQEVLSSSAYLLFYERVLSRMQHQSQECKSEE
Protocol: We next determined cellular engagement of endogenous USP30 with IMP-2587 or IMP-2586. […] In-cell concentration-dependent competition by IMP-2587 and IMP-2586 for USP30 were confirmed below 100 nM probe (Fig. 2b and c), whilst engagement of an exemplar unrelated DUB, UCHL1, occurred only at a much higher concentration (30 000 nM). We hypothesise that incomplete modification of USP30 by HA-Ub-VME is likely due to limited retention of USP30 activity in cell lysates, which have likely had the USP30 transmembrane domain compromised, highlighting the potential utility of a small molecule USP30 ABP applicable directly in intact cells. Direct USP30 target engagement by IMP-2587 and IMP-2586 was confirmed in HEK293T cells following 1 h probe treatment followed by cell lysis and CuAAC bio-orthogonal ligation to capture reagent azido-TAMRA-biotin (AzTB) for IMP-2587 or alkyne-TAMRA-biotin for IMP-2586 (Fig. 3a).[27] […] This unspecific background labelling is presumably due to the previously reported higher off-target CuAAC reactivity of an alkyne-bearing capture reagent, applied here due to incorporation of an azide tag in IMP-2586.[28] Moreover, the labelling of USP30 was further confirmed by biotin pulldown and immunoblotting. […]
d) Live cell probe incubation, lysate click chemistry and precipitation 6-well HEK293T cells were incubated with media containing compounds ABP 2 and ABP 4 at indicated concentrations for 1 h at 37 °C. The cells were washed with PBS and lysed with lysis buffer (50 μL (1% (v/v) Triton X-100, 0.1% (w/v) sodium dodecyl sulfate (SDS), EDTA-free complete protease inhibitor cocktail (1×, Roche) in PBS on ice for 10 min. The lysates were scraped and transferred to corresponding Lo-Bind Eppendorfs. Each lysate was sonicated for 1 minute, and the samples centrifuges at 5,000 x g at 4 °C for 5 minutes to pellet insoluble cellular debris. The supernatant was collected, and protein concentration was determined using the DC Protein Assay (Bio-Rad) as per manufacturer’s instructions, and normalised to lowest concentrated sample (e.g. 1 mg/mL, using lysis buffer). The following “click mixture” was prepared separately, preparing 6 μL for every 100 μL of […]
Capture reagent (AzRB/AzT for ABP 2, YnT/YnB for ABP 4 10 mM in DMSO, 1 vol; final concentration […]
The lysate samples (10-20 μg) were mixed with 4× Laemmli sample loading buffer (250 mM Tris -HCl pH 6.8, 30% (v/v) glycerol, 10% (w/v) SDS, 0.05% (w/v) bromophenol blue) supplemented with 20% v/v β-mercaptoethanol (BME) and boiled for 10 min at 95 °C. […] Gel were imaged on a Typhoon imager (GE Healthcare; λEx 532 nm, λEm 575 nm for TAMRA. For protein loading quantification, gels were stained with Coomassie blue staining solution overnight, rinsed with water and imaged on an ImageQuant™ […]

[3] = HEK293T, 1 h probe treatment, CuAAC to AzTB

SMILES	IC50 [1]	lowest probe concentration showing major band at ca. 60 kDa (in-gel fluorescence) [2, 3]	probe concentration above which additional bands are labelled (in-gel fluorescence) [2, 3]	probe concentration for detection of USP30 activity in intact cells [2]
N#CN1CC[C@H](CC(=O)Nc2cc(-c3cccc(Cl)c3)no2)C1 [compound 1, reference compound]	1 to 10 nM			
C#Cc1cccc(-c2cc(NC(=O)CC3CCN(C#N)C3)on2)c1 (stereo not drawn) [IMP-2587]		3 nM	above 30 nM	3 to 10 nM
N#CN1CC[C@@H](NC(=O)c2cc(-c3ccccc3Oc3ccc(N=[N+]=[N-])cc3)n[nH]2)C1 [IMP-2586]				3 to 10 nM
N#CN1CC[C@@H](NC(=O)c2cc(-c3ccccc3Oc3ccccc3)n[nH]2)C1 [compound 3, reference compound]	1.5 nM			
